Measured values: BigSolDB 2.1

O=[N+]([O-])c1cn[nH]c1[N+](=O)[O-]
solubility (mole fraction)
Conditions	283.15 K	288.15 K	293.15 K	298.15 K	303.15 K	308.15 K	313.15 K	318.15 K	323.15 K
in 2-butanone	0.429	0.45	0.476	0.498	0.525	0.554	0.578	0.602	0.645
in THF	0.51	0.525	0.598	0.631	0.684	0.735	0.792	0.837	0.886
in acetonitrile	0.0745	0.0772	0.085	0.0912	0.0968	0.105	0.11	0.12	0.133
in chloroform	0.00071	0.00094	0.00113	0.00152	0.00211	0.00277	0.0035	0.00476	0.00693
in epichlorohydrin	0.0361	0.0395	0.0422	0.0467	0.0498	0.0536	0.0582	0.0634	0.0715
in ethyl acetate	0.0671	0.0791	0.0913	0.103	0.125	0.146	0.163	0.193	0.224
in isobutanol	0.234	0.264	0.265	0.329	0.355	0.391	0.438	0.486	0.539
in isopentanol	0.228	0.258	0.29	0.315	0.351	0.376	0.408	0.46	0.508
in n-pentanol	0.266	0.315	0.365	0.412	0.465	0.513	0.552	0.631	0.679
in n-propanol	0.317	0.361	0.412	0.468	0.516	0.567	0.612	0.7	0.803
in water	0.002	0.0032	0.00414	0.00529	0.00738	0.00924	0.0111	0.0136	0.0169
